Several values for one entry are separate records, joined by “and”; a condition that tells them apart may be missing. Equal values may be shown once. Read-outs that look alike come from different tables or passages of the source.
What was measured:
[1] = target: T1, rNav1.2 sodium channels (HEK-293 cells) (Rattus norvegicus, UniProt P04775); test: steady-state inactivation protocol (availability curves), QPatch automated patch-clamp; assay type: cell-based
Source text: (§1) A)–D) Peak amplitudes of evoked currents (5 Hz trains of 5 depolarizations from −90 to −10 mV) are plotted against time. Black dots: Control. Grey dots: Drug perfusion. […] Calculation of properties of inhibition is illustrated. […] E) Calculation of Kr and Ki values from steady-state availability curves.
Standard steady-state inactivation protocols were used to measure the shift of steady-state availability curve caused by the drugs. Currents were evoked by a 10 ms test pulse to −10 mV, preceded by 400 ms pre-pulses from −150 to −30 mV. […] Because the inhibition at hyperpolarized potentials (Inh−150), and the shift of the availability curves (ΔV1/2) are both concentration-dependent properties, we calculated affinities to hyperpolarized and depolarized states (“resting state affinity”: Kr, and “inactivated state affinity”: Ki), which, on the other hand, are concentration-independent characteristics of individual drugs. Calculation of Kr and Ki values are described in Materials and Methods, and illustrated in Figure 1E. State-dependence (SD) was quantified as the ratio Kr/Ki.
(§2) HEK-293 cells stably expressing rNav1.2 sodium channels were obtained from NeuroSearch (Ballerup, Denmark).
(§3) Cells were automatically prepared for application to the chips (centrifuged and washed twice, then resuspended in extracellular solution) as described previously. Composition of the extracellular solution was: (in mM): 140 NaCl, 3 KCl, 1 CaCl2, 1 MgCl2, 0.1 CdCl2, 20 TEA-Cl, 5 HEPES, adjusted to pH 7.3, Osmolality: ∼320 mOsm.
(§4) All electrophysiological experiments were conducted on Qpatch-16 or QPatch HT instruments using QPlate™ chips. For a detailed description of the instrument and the patch-clamp chips see [37], [38]. Data were sampled at a frequency of 25 kHz and filtered at 5 kHz. […] The amplifier was controlled and the data were collected by the Sophion QPatch client software. For initial data analysis the QPatch software was used. Built-in amplifiers provide an improved method for series resistance compensation. Leak subtraction (based on a standard P/n protocol) was used to subtract the capacitive component of currents.
Inactivated affinity (Ki) values were calculated assuming a simple four-state model of drug binding and channel gating, using two separate methods: (1) from the shift of the availability curve (ΔV1/2), the slope of the Boltzmann fit of the availability curve (k) and Kr, using the formula described by Bean, Cohen and Tsien (Ki−ΔV1/2; see Figure 1E), or (2) from the apparent affinity (Kapp) at a certain pre-pulse potential, which was calculated from the inhibition (e.g. Inh−60) as described above, and the availability (h) at the same pre-pulse potential, using the formula from Kuo and Bean (Figure 1E). […] (Arithmetic means and SEM values are given in Results S7.)

[2] = target: T1, rNav1.2 sodium channels (HEK-293 cells); test: 5 Hz train protocol, QPatch automated patch-clamp; assay type: cell-based; conditions: for Rev (reversibility): Rev = A5/A1 after washout; for potency estimated from few doses: −90 mV, read-out: IC50;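 on UD (use-dependence of the inhibition): UD = (A3/A4)/(A1/A2) as ratios of peak amplitudes from Figure 1A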
Source text: The dynamics of the onset and offset of inhibition was monitored using 5 Hz trains of five depolarizing pulses from a holding potential of −90 mV to −10 mV. The trains were repeated every 20 s. Drugs were applied after 10 control trains and 10 trains were delivered in the presence of the drug. The drug was then washed out, and the 10 trains were repeated.
We measured inhibition (Inh; from which we calculated IC50 values as described in Materials and Methods), reversibility of inhibition (Rev) and use-dependence (UD), as well as time constant of onset (τon) and offset (τoff). The calculation of IC50, quantification of Rev and UD, and the determination of time constants are illustrated in Figure 1A. Because τon should be concentration-dependent if we assume a single binding reaction, we excluded it from the analyses. […] Comments on the interpretation of these properties (Rev, […] and UD) are in Results S1.
as §1, §2, §3, §4
From this protocol we extracted five parameters, as illustrated in Figure 1A. We calculated inhibition of a single “cc” concentration: Inh = (amplitudectr – amplitudedrug)/amplitudectr.

[3] = human plasma, cited from earlier work
sodium channels = conditions: averaged literature data, cited from earlier work; for Ki: read-out: Ki−Lit; for Kd: read-out: Kr−Lit
[4] = HEK293, 30 µM, read-out: Inh (inhibited fraction) at holding potential −150 mV
[5] = arithmetic mean, 30 µM, read-out: Ki-Kapp arith
[6] = arithmetic mean, 30 µM, read-out: Ki-ΔV1/2 arith
[7] = arithmetic mean, 30 µM, read-out: Kr arith
[8] = geometric mean, from Inh at −150 mV, 30 µM, read-out: Kr (resting state affinity)
[9] = geometric mean, from apparent affinity, 30 µM, read-out: Ki−Kapp (inactivated state affinity)
[10] = geometric mean, from shift of availability curve, 30 µM, read-out: Ki−ΔV1/2 (inactivated state affinity)
[11] = 30 μM, 500 s assigned where irreversible
[12] = HEK293, 30 μM, −90 mV holding potential, 5 Hz train, read-out: Inh (inhibited fraction)
[13] = HEK293, calculated from Inh at single concentration 30 μM, 5 Hz train
[14] = 100 μM, 500 s assigned where irreversible
[15] = HEK293, 100 μM, −90 mV holding potential, 5 Hz train, read-out: Inh (inhibited fraction)
[16] = HEK293, calculated from Inh at single concentration 100 μM, 5 Hz train
[17] = HEK293, 100 µM, read-out: Inh (inhibited fraction) at holding potential −150 mV
[18] = arithmetic mean, 100 µM, read-out: Ki-Kapp arith
[19] = arithmetic mean, 100 µM, read-out: Ki-ΔV1/2 arith
[20] = arithmetic mean, 100 µM, read-out: Kr arith
[21] = geometric mean, from Inh at −150 mV, 100 µM, read-out: Kr (resting state affinity)
[22] = geometric mean, from apparent affinity, 100 µM, read-out: Ki−Kapp (inactivated state affinity)
[23] = geometric mean, from shift of availability curve, 100 µM, read-out: Ki−ΔV1/2 (inactivated state affinity)

T1 sequence (P04775 whole entry, the tested form may be a part): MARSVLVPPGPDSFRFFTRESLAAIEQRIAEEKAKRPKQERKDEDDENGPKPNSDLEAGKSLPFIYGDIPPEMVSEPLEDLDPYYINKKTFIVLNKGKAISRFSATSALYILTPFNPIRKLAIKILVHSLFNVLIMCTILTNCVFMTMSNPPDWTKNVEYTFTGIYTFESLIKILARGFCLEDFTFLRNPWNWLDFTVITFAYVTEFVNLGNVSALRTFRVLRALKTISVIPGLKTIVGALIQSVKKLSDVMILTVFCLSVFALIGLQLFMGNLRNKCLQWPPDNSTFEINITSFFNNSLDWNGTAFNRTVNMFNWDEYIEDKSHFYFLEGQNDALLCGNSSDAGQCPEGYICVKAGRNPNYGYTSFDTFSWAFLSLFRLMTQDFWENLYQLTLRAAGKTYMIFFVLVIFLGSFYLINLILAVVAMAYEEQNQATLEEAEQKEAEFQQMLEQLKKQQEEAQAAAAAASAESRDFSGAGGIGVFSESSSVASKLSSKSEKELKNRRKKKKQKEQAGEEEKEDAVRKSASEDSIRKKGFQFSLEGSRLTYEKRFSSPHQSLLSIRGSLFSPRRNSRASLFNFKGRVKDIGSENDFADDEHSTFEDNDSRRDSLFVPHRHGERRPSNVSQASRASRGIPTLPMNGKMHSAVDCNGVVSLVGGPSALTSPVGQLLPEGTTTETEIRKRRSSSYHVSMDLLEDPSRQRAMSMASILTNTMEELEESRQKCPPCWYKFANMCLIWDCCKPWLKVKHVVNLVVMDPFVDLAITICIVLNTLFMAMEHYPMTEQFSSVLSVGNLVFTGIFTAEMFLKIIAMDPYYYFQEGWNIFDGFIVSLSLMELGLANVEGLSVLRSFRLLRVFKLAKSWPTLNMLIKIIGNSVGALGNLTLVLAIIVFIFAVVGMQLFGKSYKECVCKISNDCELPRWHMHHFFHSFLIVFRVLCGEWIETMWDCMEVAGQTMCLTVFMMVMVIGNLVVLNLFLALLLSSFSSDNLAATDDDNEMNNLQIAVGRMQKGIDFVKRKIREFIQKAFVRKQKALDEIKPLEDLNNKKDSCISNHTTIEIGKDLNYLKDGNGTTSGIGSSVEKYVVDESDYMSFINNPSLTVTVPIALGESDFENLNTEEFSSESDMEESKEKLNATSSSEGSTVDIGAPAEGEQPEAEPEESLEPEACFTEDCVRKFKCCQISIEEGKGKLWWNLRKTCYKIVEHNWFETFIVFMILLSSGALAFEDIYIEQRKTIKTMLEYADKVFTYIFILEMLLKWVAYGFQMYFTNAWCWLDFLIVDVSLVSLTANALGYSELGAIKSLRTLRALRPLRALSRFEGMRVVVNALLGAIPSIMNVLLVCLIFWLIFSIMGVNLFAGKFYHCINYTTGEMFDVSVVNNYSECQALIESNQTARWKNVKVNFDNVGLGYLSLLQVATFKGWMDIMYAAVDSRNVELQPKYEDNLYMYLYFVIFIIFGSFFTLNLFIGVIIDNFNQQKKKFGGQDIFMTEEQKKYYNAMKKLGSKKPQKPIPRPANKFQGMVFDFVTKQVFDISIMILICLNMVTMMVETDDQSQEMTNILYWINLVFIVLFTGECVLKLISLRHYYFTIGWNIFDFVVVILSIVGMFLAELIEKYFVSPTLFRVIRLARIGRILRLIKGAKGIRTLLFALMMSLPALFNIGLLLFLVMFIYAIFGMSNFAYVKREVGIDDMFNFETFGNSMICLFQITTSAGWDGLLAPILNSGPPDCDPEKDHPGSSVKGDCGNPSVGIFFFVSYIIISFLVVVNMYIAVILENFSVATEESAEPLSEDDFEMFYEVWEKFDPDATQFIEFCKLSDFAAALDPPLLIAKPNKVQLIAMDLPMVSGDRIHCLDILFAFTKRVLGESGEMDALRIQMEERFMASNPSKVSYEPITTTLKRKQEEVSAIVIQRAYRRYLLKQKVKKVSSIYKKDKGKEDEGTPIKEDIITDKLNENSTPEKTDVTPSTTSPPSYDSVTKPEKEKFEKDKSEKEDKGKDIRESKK

| SMILES | ΔV1/2 (shift of availability curve) ([1]; 30 μM) [mV] | inhibition at 30 µM [1, 4] [%] | Ki [1, 5] [µM] | Ki [1, 6] [µM] | Kd [1, 7] [µM] | Kd [1, 8] [µM] | Ki [1, 9] | Ki [1, 10] [µM] | τon ([2]; 30 μM) [s] | UD (use-dependence of the inhibition) ([2]; 30 μM, 5 Hz train) | τoff [2, 11] [s] | Rev (reversibility) ([2]; 30 μM) | inhibition at 30 µM [2, 12] [%] | potency estimated from few doses [2, 13] [µM] | plasma conc. ([3]; as printed in each cell) | plasma conc. ([3]; as printed in the µg/ml cell) [µM] | Ki (sodium channels) [µM] | Kd (sodium channels) [µM] | τon ([2]; 100 μM) [s] | UD (use-dependence of the inhibition) ([2]; 100 μM, 5 Hz train) | also measured |
| --- | --- | --- | --- | --- | --- | --- | --- | --- | --- | --- | --- | --- | --- | --- | --- | --- | --- | --- | --- | --- | --- |
| CN(C)CCCN1c2ccccc2Sc2ccc(Cl)cc21 [CPM, Chlorpromazine] | −18.4 | 32 | 1.03 | 0.33 | 85.8 | 69.6 | 0.82 µM | 0.29 | 14.81 | 1.30 | 9.67 | 0.07 | 41 | 47.3 | 0.1 [44] µg/ml | 0.281 | 0.19 | 3.18 |  |  |  |
| CN(C)CCCN1c2ccccc2CCc2ccccc21 [IMI, Imipramine] |  |  |  |  |  |  |  |  |  |  |  |  |  |  | 0.2 [44] µg/ml | 0.631 | 0.89 | 26.5 |  |  |  |
| CCc1nn(CCCN2CCN(c3cccc(Cl)c3)CC2)c(=O)n1CCOc1ccccc1 [NFZ, Nefazodone] | −17.4 | 9 | 1.1 | 1.05 |  | 567 | 0.92 µM | 0.87 | 8.75 | 1.22 | 10.93 | 0.51 | 39 | 46.4 | 1.52 [48] µg/ml | 3.007 |  |  |  |  |  |
| Cc1nc2sccn2c(=O)c1CCN1CCC(=C(c2ccc(F)cc2)c2ccc(F)cc2)CC1 [RIT, Ritanserin] | −7.28 | 13 | 6.52 | 7.69 | 225 | 206 | 6.1 µM and 6.13 µM | 7.1 | 14.38 | 1.09 | 22.28 | 0.37 |  | 23.6 | 0.14 [54] µg/ml | 0.299 |  |  |  |  |  |
| CNCCC(Oc1ccccc1OC)c1ccccc1 (centres unmarked) [NIS, Nisoxetine] |  |  |  |  |  |  |  |  |  |  |  |  |  |  | 0.05 [46] µg/ml | 0.159 |  |  | 20.71 | 1.33 | ΔV1/2 (shift of availability curve) ([1]; 100 μM): −6.68 mV; inhibition at 100 µM ([1]; HEK293, read-out: Inh (inhibited fraction) at holding potential −150 mV): 34%; Ki ([1]; Ki-Kapp arith, arithmetic mean, 100 µM): 7.63 µM; Ki ([1]; Ki-ΔV1/2 arith, arithmetic mean, 100 µM): 19.5 µM; Ki ([1]; Ki−Kapp (inactivated state affinity), geometric mean, from apparent affinity, 100 µM): 7.1 µM; Ki ([1]; Ki−ΔV1/2 (inactivated state affinity), geometric mean, from shift of availability curve, 100 µM): 19.1 µM; Kd ([1]; Kr (resting state affinity), geometric mean, from Inh at −150 mV, 100 µM): 194 µM; Kd ([1]; Kr arith, arithmetic mean, 100 µM): 196 µM; τoff [2, 14]: 23.41 s; Rev (reversibility) ([2]; 100 μM): 0.66; inhibition at 100 µM [2, 15]: 57%; potency estimated from few doses [2, 16]: 75.7 µM |
| O=C(NCC1CCCCN1)c1cc(OCC(F)(F)F)ccc1OCC(F)(F)F (centres unmarked) [FLC, Flecainide] |  |  |  |  |  |  |  |  |  |  |  |  |  |  |  |  | 5.55 | 355 |  |  | inhibition at 300 µM ([1]; HEK293, 300 µM, read-out: Inh (inhibited fraction) at holding potential −150 mV): 82%; Ki ([1]; arithmetic mean, 300 µM, read-out: Ki-Kapp arith): 6.1 µM; Ki ([1]; arithmetic mean, 300 µM, read-out: Ki-ΔV1/2 arith): 9.72 µM; Kd ([1]; arithmetic mean, 300 µM, read-out: Kr arith): 65 µM; Kd ([1]; geometric mean, from Inh at −150 mV, 300 µM, read-out: Kr (resting state affinity)): 64.7 µM; Ki ([1]; geometric mean, from apparent affinity, 300 µM, read-out: Ki−Kapp (inactivated state affinity)): 5.7 µM; Ki ([1]; geometric mean, from shift of availability curve, 300 µM, read-out: Ki−ΔV1/2 (inactivated state affinity)): 7.9 µM; Kr ([1]; in words): low Kr; difference between Kr and IC50 [2]: no difference; τoff ([2]; 300 μM): 64.97 s; τon ([2]; 300 μM, 3 s assigned where too short to be resolved): 20.04 s; UD (use-dependence of the inhibition) ([2]; 300 μM, 5 Hz train): 1.34; Rev (reversibility) ([2]; 300 μM): 0.57; use-dependence (UD) ([2]; 5 Hz train): high; inhibition at 300 µM ([2]; HEK293, 300 μM, −90 mV holding potential, 5 Hz train, read-out: Inh (inhibited fraction)): 82%; potency estimated from few doses ([2]; HEK293, calculated from Inh at single concentration 300 μM, 5 Hz train): 67.6 µM |
| CN(C)CC/C=C1/c2ccccc2Sc2ccc(Cl)cc21 [CHX, Chlorprothixene] | −15.8 | 20 | 2.21 | 1.14 | 144 | 128 | 1.74 µM | 0.73 | 7.24 | 1.25 | 14.41 | 0.18 | 28 | 42.5 | 0.07 [50] µg/ml | 0.200 |  |  |  |  |  |
| Nc1c(Br)cc(Br)cc1CN[C@H]1CC[C@H](O)CC1 [AMB, Ambroxol] |  |  |  |  |  |  |  |  |  |  |  |  |  |  |  |  | 8.17 | 110 | 5.74 | 1.24 | inhibition at 100 µM [1, 17]: 33%; Ki [1, 18]: 18.6 µM; Ki [1, 19]: 12.8 µM; Kd [1, 20]: 201 µM; Kd [1, 21]: 201 µM; Ki [1, 22]: 17.6 µM; Ki [1, 23]: 12.2 µM; τoff [2, 14]: 6.78 s; Rev (reversibility) ([2]; 100 μM): 0.81; inhibition at 100 µM [2, 15]: 51%; potency estimated from few doses [2, 16]: 95.9 µM |
| O=C(O)Cc1ccccc1Nc1c(Cl)cccc1Cl [DIC, Diclofenac] |  |  |  |  |  |  |  |  |  |  |  |  |  |  | 2 [44] µg/ml | 6.287 |  |  | 7.19 | 1.01 | inhibition at 100 µM [1, 17]: 3%; Ki [1, 18]: 98.4 µM; Ki [1, 19]: 102 µM; Kd [1, 20]: 3300 µM; Kd [1, 21]: 3120 µM; Ki [1, 22]: 87.8 µM; Ki [1, 23]: 81 µM; τoff [2, 14]: 26.43 s; Rev (reversibility) ([2]; 100 μM): 0.95; potency estimated from few doses [2, 16]: 561 µM |

From PMC3004914, “Classification of Drugs Based on Properties of Sodium Channel Inhibition: A Comparative Automated Patch-Clamp Study” (PLoS ONE, 2010)
